Values of other authors in patent US20080003278A1, “Food products and dietary supplements for improving mental performance” (priority 2006, published 2008).

System: epileptic seizures
Conditions: thirty-one patients participating in the study

CCOC(=O)C1=C[C@]2(CC)CCCN3CCc4c(n1c1ccccc41)[C@@H]32 [vinpocetine]
patients in whom the frequency of epileptic seizures was reduced and, in some cases, seizures completely eliminated: twenty of the thirty-one
